The test system of one data set is E. coli. The data set is described as follows: growth and Nal incorporation of E. coli expression host with added AZL. To be noted: AZL added to the medium. It is filed as cell-based. Here is the method: Incomplete occupancy of the UUG codon by Nal is due at least in part to competition with leucine-charged E. coli tRNA^LeuS. In an attempt to reduce competition by E. coli tRNA^LeuS, use of a mutant E. coli strain lacking tRNA^LeuCAA and addition of an E. coli leucyl-tRNA synthetase (LeuRS) inhibitor were tested. A Phe/Leu double auxotrophic strain derived from the tRNA^LeuCAA-deficient strain XA106 (CGSC at Yale) was tested for incorporation of Nal at the UUG codon.
Peptide 5UUG/UUG (residues 26-35, […], SEQ ID NO: 8) contains two Leu residues encoded as UUG. Upon addition of Nal, the masses of these fragments shift in accord with the mass difference between Nal and Leu. Only Nal (a), Nal and 1 mM AZL (b) were supplemented into the media.

The target of another data set is E. coli LeuRS (Escherichia coli, UniProt P07813). As to conditions: in vitro; cited from earlier work.
E. coli LeuRS, sequence (P07813 whole entry): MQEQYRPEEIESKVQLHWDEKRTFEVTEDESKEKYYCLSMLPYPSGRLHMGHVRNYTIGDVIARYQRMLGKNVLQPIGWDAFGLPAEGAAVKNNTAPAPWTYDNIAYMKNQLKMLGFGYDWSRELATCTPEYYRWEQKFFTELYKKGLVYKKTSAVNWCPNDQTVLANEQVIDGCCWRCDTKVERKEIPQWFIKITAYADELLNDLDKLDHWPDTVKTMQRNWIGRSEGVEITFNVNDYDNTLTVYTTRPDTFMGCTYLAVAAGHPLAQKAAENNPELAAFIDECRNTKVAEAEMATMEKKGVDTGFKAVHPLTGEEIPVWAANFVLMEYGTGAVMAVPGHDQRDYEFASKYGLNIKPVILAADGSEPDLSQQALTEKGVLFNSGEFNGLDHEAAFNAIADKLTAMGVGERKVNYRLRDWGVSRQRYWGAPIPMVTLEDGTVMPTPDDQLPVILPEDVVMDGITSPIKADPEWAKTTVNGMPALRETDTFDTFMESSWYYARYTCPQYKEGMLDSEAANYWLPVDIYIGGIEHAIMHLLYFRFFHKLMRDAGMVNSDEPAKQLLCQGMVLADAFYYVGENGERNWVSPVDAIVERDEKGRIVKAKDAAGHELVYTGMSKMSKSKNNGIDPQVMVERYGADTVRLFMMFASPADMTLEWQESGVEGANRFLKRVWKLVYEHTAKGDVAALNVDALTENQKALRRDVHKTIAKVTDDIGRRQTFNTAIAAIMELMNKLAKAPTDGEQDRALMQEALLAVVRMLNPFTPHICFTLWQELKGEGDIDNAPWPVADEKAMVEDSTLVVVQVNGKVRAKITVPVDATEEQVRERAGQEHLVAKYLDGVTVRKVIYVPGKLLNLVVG
For data set [1] the following is noted: cited from earlier work; for pKa (second of two pKa's): higher of the two pKa's of the side-chain moiety; for pKa (first of two pKa's): lower of the two pKa's of the side-chain moiety.
The target of data set [2] is mu-yPheRS (modified yeast PheRS, Thr415Gly) (Saccharomyces cerevisiae, UniProt P15625, T415G). To be noted: Nal versus Phe. As to the method:
The modified yeast PheRS (mu-yPheRS) was prepared by introduction of a Thr415Gly mutation in the α-subunit of the synthetase (Datta et al., J. Am. Chem. Soc. 124: 5652, 2002). The kinetics of activation of Nal and Phe by mu-yPheRS were analyzed in vitro via the pyrophosphate exchange assay.

Data set [3] deals with leucine zipper c-MYC-MAX heterodimer (Homo sapiens, UniProt P01106+P61244). As to conditions: histidine at the center of c-MYC-MAX leucine zipper; cited from earlier work.
leucine zipper c-MYC-MAX heterodimer, sequence (P01106 428-449 limits assumed): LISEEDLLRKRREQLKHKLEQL
leucine zipper c-MYC-MAX heterodimer, sequence (P61244 81-102 limits assumed): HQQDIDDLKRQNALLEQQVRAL

mu-yPheRS (modified yeast PheRS, Thr415Gly), sequence (P15625 whole entry T415G): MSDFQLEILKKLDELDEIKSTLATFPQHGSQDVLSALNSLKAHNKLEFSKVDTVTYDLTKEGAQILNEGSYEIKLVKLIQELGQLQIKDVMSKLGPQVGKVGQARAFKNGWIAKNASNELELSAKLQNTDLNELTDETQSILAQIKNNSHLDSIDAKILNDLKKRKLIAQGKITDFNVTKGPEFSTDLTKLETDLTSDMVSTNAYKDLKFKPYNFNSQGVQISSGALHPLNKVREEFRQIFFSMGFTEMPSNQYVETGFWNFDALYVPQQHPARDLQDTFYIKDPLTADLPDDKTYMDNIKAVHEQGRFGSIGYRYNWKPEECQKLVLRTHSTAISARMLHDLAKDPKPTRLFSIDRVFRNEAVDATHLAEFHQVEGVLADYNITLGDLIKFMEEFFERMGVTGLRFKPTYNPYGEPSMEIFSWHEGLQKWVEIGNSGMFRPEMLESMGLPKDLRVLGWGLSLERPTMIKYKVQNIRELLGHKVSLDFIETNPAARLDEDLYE
mu-yPheRS (modified yeast PheRS, Thr415Gly), sequence (P15624 whole entry, further chain): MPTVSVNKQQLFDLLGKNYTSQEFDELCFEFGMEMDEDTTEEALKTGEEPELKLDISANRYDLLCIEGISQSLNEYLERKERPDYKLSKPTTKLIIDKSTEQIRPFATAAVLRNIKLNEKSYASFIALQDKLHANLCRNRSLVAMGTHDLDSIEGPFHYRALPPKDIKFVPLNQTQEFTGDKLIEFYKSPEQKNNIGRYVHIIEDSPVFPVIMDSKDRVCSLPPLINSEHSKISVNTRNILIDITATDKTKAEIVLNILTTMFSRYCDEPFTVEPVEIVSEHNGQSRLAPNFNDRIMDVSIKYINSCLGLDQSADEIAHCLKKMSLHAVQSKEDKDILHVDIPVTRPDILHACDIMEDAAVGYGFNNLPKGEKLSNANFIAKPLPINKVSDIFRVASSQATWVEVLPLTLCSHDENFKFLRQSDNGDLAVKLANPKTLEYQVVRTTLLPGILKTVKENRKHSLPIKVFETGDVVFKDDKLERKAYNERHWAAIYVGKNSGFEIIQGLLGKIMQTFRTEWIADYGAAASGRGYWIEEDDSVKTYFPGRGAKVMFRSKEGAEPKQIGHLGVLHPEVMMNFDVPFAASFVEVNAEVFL

In the case of `CN(C)CC(N)C(=O)O` (racemic) [AZL, 4-Aza-DL-leucine], the “growth rate of the host” value in the data set on E. coli is “reduced the growth rate”. In addition, the “occupancy of the UUG codon by Nal” value in the data set on E. coli (mDHFR expression) was “enhanced occupancy”. Moreover, on E. coli LeuRS, the “inhibition of E. coli LeuRS” value is “competitive inhibitor”.

Consider `N[C@@H](Cc1c[nH]c(F)n1)C(=O)O` [2-fluoro-histidine], for which, in data set [1], the “pKa (second of two pKa's)” value is recorded as 11.5 and the “pKa (first of two pKa's)” value was 4.0.

`N[C@@H](Cc1ccc2ccccc2c1)C(=O)O` [Nal, L-3-(2-naphthyl)alanine]: in data set [2], the “kcat/KM relative to that for Phe” value is given as 8 fold.

For the compound `N[C@@H](Cc1c[nH]cn1)C(=O)O` [histidine], the “histidine pKa, experimental value” in data set [3] was 7.19. In data set [1], the “pKa (second of two pKa's)” value is recorded as 14.52 and the “pKa (first of two pKa's)” value is 7.05.

Values taken from patent US20050260711A1, “Modulating pH-sensitive binding using non-natural amino acids” (priority 2004, published 2005).
